Measured values: patent US10285994B2, “Method of preventing or treating osteoporosis by neddylation inhibitor” (Chang Gung University, priority 2017, dated 2019)

System: ovariectomized (OVX) mice
Assay: Ovariectomy + sRANKL osteoporosis mouse model, micro-CT of distal femur
Format: in vivo
Conditions: 10 mg/kg i.p. once daily for 2 weeks
Description: FIGS. 6A-6E are the data depicting the mouse model of ovariectomy-induced osteoporosis, in which the ovariectomized (OVX) mice are respectively treated with sRANKL (1 mg/Kg) in the absence or presence of MLN4924 (10 mg/Kg) according to example 5.1 of the present disclosure. FIG. 6A: Micro computed-tomography (micro-CT) three-dimensional images of the distal femurs of mice respectively treated with the indicated treatments, in which the left panels represent transaxial plane, and the right panels represent coronal plane. FIGS. 6B-6D: micro-CT measurement of trabecular bone parameters, including bone volume/total volume (FIG. 6B), trabecular number (FIG. 6C), and trabecular space (FIG. 6D). FIG. 6E: Serum level of C-telopeptide of type 1 collagen (CTX-1) in control, OVX, OVX+sRANKL, and OVX+sRANKL+MLN4924 groups. Values are expressed as mean±SD, N=6 per group. *p<0.05; **p<0.01.
All experimental procedures were approved by the Institutional Animal Care and Use Committee of the Chang Gung Memorial Hospital at Chiayi and complied with the Guideline for the Care and Use of Laboratory Animals available through the National Academy of Sciences (IACUC number: 2013100102 and 2015103001). All efforts were made to minimize the suffering of the animals. C57BL/6J female mice (6-8 weeks old; obtained from BioLasco in Taiwan) were operated ovariectomy surgery (OVX). 48 hours later of OVX operation, sRANKL (1 mg/kg) or saline was injected intraperitoneally once daily for two days followed by intraperitoneal injection of MLN4924 (10 mg/kg) once daily for 2 weeks. Mice were sacrificed with CO2 asphyxiation, and the tibias and femurs were isolated therefrom. The tibias were subject to histochemistry assay, and the femurs were subject to bending test and tomographic analysis by MTS (Testresources, Shakopee, Minn.) and Skyscan 1272 (Bruker, Kontich, Belgium), respectively. Serum levels of cross linked C-telopeptide of type I collagen (CTX-1) (CEA665Mu) was measured by specific ELISA kit (USCN life science incorporation, Wuhan, Hubei, China).
The mice were first treated with specified treatments before subjecting to micro-computed tomography (pCT).
The effect of MLN4924 on trabecular bone parameters, including the bone volume/total tissue volume, trabecular number, and trabecular space in bone loss mice were then investigated, and results are presented in FIGS. 6B to 6D.

NS(=O)(=O)OC[C@@H]1C[C@@H](n2ccc3c(N[C@H]4CCc5ccccc54)ncnc32)C[C@@H]1O [MLN4924, (1S,2S,4R)-4-(4-((1S)-2,3-Dihydro-1H-inden-1-ylamino)-7H-pyrrolo(2,3-d)pyrimidin-7-yl)-2-hydroxycyclopentyl) methyl sulphamate]
trabecular bone loss at distal femoral metaphysis (micro-CT images) (FIG. 6A): could rescue the trabecular bone loss caused by OVX+sRANKL treatment | bone volume/total tissue volume (vs OVX+sRANKL group, FIG. 6B): significantly rescued the sRANKL-mediated trabecular bone loss | trabecular number (vs OVX+sRANKL group, FIG. 6C): significantly rescued the sRANKL-mediated trabecular bone loss | trabecular space (vs OVX+sRANKL group, FIG. 6D): significantly rescued the sRANKL-mediated trabecular bone loss
